Experiments:
PDE1A = molecular target: T1, PDE1A (Homo sapiens, UniProt P54750); experiment: In vitro detection of phosphodiesterase (PDE): PDE1A enzyme activity by fluorescence polarization immunoassay; assay type: biochemical; details: human-derived enzyme, cAMP or cGMP substrate; read-out: IC50s for PDE1
T1 construct: purchased SignalChem
Summary of the method: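 Human PDE1A (enzyme solution 3 pM) was preincubated 10 min at RT with compound in 10 mM Tris-HCl pH 7.5, 5 mM MgCl2, 0.01% Brij 35, 1 mM DTT, 1% DMSO, with Ca2+-calmodulin cofactor. Reaction ran 1 h at RT on […] cAMP or cGMP, then 90 min with antibody/tracer. FP at Ex/Em 620/688 was converted to AMP/GMP via standard curve to give IC50.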

[1] = Comparison of pharmacokinetics in Beagle dogs; assay type: in vivo; details: for clearance / half-life / bioavailability: male, dog, plasma; for half-life: read-out: Half-life period (converted)
Description: Test 2: Comparison of Pharmacokinetics in Beagle Dogs
In this study, male Beagle dogs were given the compounds of the examples and vinpocetine (as a control compound) by intravenous injection or oral administration, respectively, then the drug concentration in plasma at different time points was determined by the LC/MS/MS method, so as to investigate the pharmacokinetic characteristics of the two test drugs in Beagle dogs.
Eight healthy adult Beagle dogs with a weight of 7.0 to 10.83 kg (purchased from Beijing Marshall Biotechnology Co., Ltd.) were selected. The formulation for intravenous injection group was DMSO: PEG400: water=5:20:75. A solvent was added to the test compound which had been accurately weighed, after vortex oscillation and ultrasound, a clear solution with a final concentration of 1.0 mg/mL was obtained. The solution was filtered with a filter membrane of 0.22 μm and stored at room temperature for use. The formulation for oral administration group was PEG 400: Tween 80: H2O=40:10:50. A solvent was added to the test compound which had been accurately weighed, after vortex oscillation and ultrasound, a clear solution with a final concentration of 1.5 mg/mL was obtained. The formulations for both the intravenous injection and the oral administration were formulated on the day of administration. The intravenous dose was 1.0 mg/kg, and the oral dose was 3.0 mg/kg. The whole blood for each test compound was respectively taken at 0.083 (for intravenous injection only), 0.25, 0.5, 1, 2, 4, 6, 8 and 24 hours after administration. The whole blood was centrifuged (3000 g, 15 min, 4° C.) to obtain the plasma. The drug concentration in each plasma sample was determined by LC/MS/MS method. The data about drug concentration in plasma was processed by WinNonlin™ Version 6.3 (Pharsight, Mountain View, Calif.) software, using a non-compartmental model, and the pharmacokinetic parameters were calculated by using the linear-logarithmic trapezoidal method.

[2] = test system: pentylenetetrazole-kindling model of epilepsy; experiment: Inhibition effect on pentylenetetrazole-kindling model of epilepsy in cynomolgus monkey; assay type: in vivo; details: 10 mg/kg; for latency prolonged than the Vehicle group / latency, relative increase versus Vehicle group / lasting time of convulsions shortened compared with the Vehicle Group / lasting time of convulsions, relative reduction versus Vehicle Group / times of clonic and tonic convulsion reduced compared with the Vehicle Group / times of clonic and tonic convulsion, relative reduction versus Vehicle Group: versus Vehicle group; for latency for the onset of epilepsy seizure: continuous administration of 8 days, pentylenetetrazole 40 mg/kg s.c.; for latency for the onset of epilepsy seizure / lasting time of clonic convulsions and tonic convulsions / times of clonic convulsion and tonic convulsion: Mean±SEM; for lasting time of clonic convulsions and tonic convulsions: pentylenetetrazole-kindled; for times of clonic convulsion and tonic convulsion: within 24 hours after pentylenetetrazol
Excerpt: Test 3: Inhibition Effect on Pentylenetetrazole-Kindling Model of Epilepsy in Cynomolgus Monkey In this test, six male cynomolgus monkeys were selected, and each monkey was intragastrically administrated by nasal feeding. Besides pentylenetetrazole which was administrated by subcutaneous injection, the compound of Example 29 and carbamazepine were consecutively administered for 8 days, respectively. The monkeys were respectively given a solvent prior to the first administration, and were injected subcutaneously with pentylenetetrazole immediately after the last administration. The administration interval between two tests was about 10 days. Pentylenetetrazine was administered once to induce epilepsy prior to the first administration of the compound of Example 29. The dosage was calculated according to the latest weight of the animal, and the date of first administration was designated as Day 1. Surgical procedure: the animals were fed adaptively for at least one week in feeding facilities, and then they were anesthetized during preoperative preparation according to the company standards. The main operation procedures were as follows: cutting the head skin, fully exposing the skull, stripping the periosteum, and cleaning the skull surface with a dry absorbent cotton; drilling 2 holes on the skull of the cynomolgus monkey with cranial drill, implanting a brain electrode, and fixing it with dental cement; then burying two myoelectric electrodes into the neck muscles of the cynomolgus monkey, and burying eye-electric electrodes into the bilateral eye muscles, fixing the implant body in the abdominal muscle layer. Postoperative care was performed according to the company standards. The raw data was collected by Ponemah of DSI system, and analyzed and revised by Neuronscore. The data was shown by mean±standard error (Mean±SEM), statistical analysis was performed by t-test and ANOVA. P<0.05 indicated a significant difference, P<0.01 indicated a very significant difference, P<0.001 indicated an extremely significant difference. The characteristics of electroencephalic response and electroencephalic energy for pentylenetetrazole-kindling epilepsy were observed and analyzed, and then a comparison was made between Example 29 and carbamazepine in terms of the latency for the onset of epilepsy seizure, and the times and lasting time of clonic convulsions and tonic convulsions in cynomolgus monkey pentylenetetrazole-kindling model, so as to compare the pharmacodynamic inhibitory effect of Example 29 and carbamazepine on cynomolgus monkey pentylenetetrazole-kindling model. After the cynomolgus monkeys were injected subcutaneously with 40 mg/kg pentylenetetole on the back and were induced epilepsy-like behaviors, the electroencephalic response, electromyogrphic response and locomotor activity were detected by DSI wireless remote sensing signal recording system. […] The behaviors were divided into paroxysmal activity, clonic convulsion and tonic convulsions according to the status of epilepsy. The changes of electroencephalic energy within 4-24 Hz were statistically analyzed when cynomolgus monkeys suffered epileptic seizure within 24 hours after injection of pentylenetetrazole.

| area under the concentration-time curve (0-inf) ([1]; intravenous injection 1 mg/kg) [µM·h] | clearance ([1]; intravenous injection 1 mg/kg) [mL/min/kg] | half-life ([1]; intravenous injection 1 mg/kg) [h] | bioavailability ([1]; oral administration 3 mg/kg) [%] | Peak concentration ([1]; oral administration 3 mg/kg) [nM] | Time to Peak ([1]; oral administration 3 mg/kg) [h] | area under the concentration-time curve (0-inf) ([1]; oral administration 3 mg/kg) [µM·h] | SMILES | latency prolonged than the Vehicle group ([2]; 8 days) [min] | latency, relative increase versus Vehicle group ([2]; 8 days) [%] | latency for the onset of epilepsy seizure [2] [min] | lasting time of clonic convulsions and tonic convulsions [2] [min] | lasting time of convulsions shortened compared with the Vehicle Group [2] [min] | lasting time of convulsions, relative reduction versus Vehicle Group [2] [%] | times of clonic convulsion and tonic convulsion [2] | times of clonic and tonic convulsion reduced compared with the Vehicle Group ([2]; within 24 hours) | times of clonic and tonic convulsion, relative reduction versus Vehicle Group ([2]; within 24 hours) [%] | other results |
| --- | --- | --- | --- | --- | --- | --- | --- | --- | --- | --- | --- | --- | --- | --- | --- | --- | --- |
| 4.04 | 12 | 9.42 | 37.5 | 1299 | 1.0 | 4.545 | CC[C@@]12C=C(c3nc(C)no3)n3c4c(c5ccccc53)CCN(CCC1)[C@H]42 [Example 29, 5-((4^1S,13aS)-13a-ethyl-2,3,4^1,5,6,13a-hexahydro-1H-indolo[3,2,1-de]pyrido[3,2,1-ij][1,5]naphthyridin-12-yl)-3-methyl-1,2,4-oxadiazole] | 39.24 | 160 | 64.10 ± 13.21 | 2.61 ± 0.99 | 9.07 | 78 | 25.7±7.07 | about 82 times | 76 | IC50 (PDE1A): 1 to 20 µM; half-life longer than that of vinpocetine ([1]; relative to vinpocetine): 56%; plasma clearance lower than that of vinpocetine ([1]; relative to vinpocetine): about 85%; latency prolonged than the carbamazepine group ([2]; 8 days, versus carbamazepine group): 18.9 min; lasting time of convulsions shortened compared with the carbamazepine group ([2]; versus carbamazepine group): about 2.1 min; times of clonic and tonic convulsion reduced compared with the carbamazepine group ([2]; within 24 hours, versus carbamazepine group): about 14 times |
| 0.588 | 80.5 | 6.03 | 12.3 | 142 | 0.5 | 0.216 | CCOC(=O)C1=C[C@]2(CC)CCCN3CCc4c(n1c1ccccc41)[C@@H]32 [Vinpocetine, reference compound] | – | – | – | – | – | – | – | – | – | – |
| – | – | – | – | – | – | – | NC(=O)N1c2ccccc2C=Cc2ccccc21 [carbamazepine, reference compound] | 20.34 | 81 | 45.20 ± 9.11 | 4.71 ± 2.35 | 6.97 | 60 | 39.20±14.92 | about 68 times | 63 | – |

From US10017507B2, “Diaza-benzofluoranthrene compounds” (HARBIN PHARMACEUTICAL GROUP CO., LTD. GENERAL …, priority 2015, dated 2018)
